This is an account of results in patent US8420852B2, “Phospholipase A2 inhibitors and their use in treating neurological injury and disease” (The Regents of the University of California, priority 2007, dated 2013).

The subject of one test is C57BL/6 mice with EAE. As to conditions: C57BL/6 mouse strain, previously shown; cited from earlier work.
The test system of test [1] is SJL/J mice induced with EAE. The test can be described thus: EAE model of multiple sclerosis, clinical score. Format: in vivo, mouse.

“Also recorded” adds a separate entry of the source.

In the case of `CCCCC/C=C\C/C=C\C/C=C\C/C=C\CCCC(=O)C(F)(F)F` [AACOCF3, arachidonyltrifluoromethyketone], the “onset and progression of EAE” value in the test on C57BL/6 mice with EAE is “markedly reduce the onset and progression of the disease”.
As for `CCCCCCCCCCCCCCC(=O)C(=O)NCCCC(=O)O` [AX006, 4-(2-oxohexadecanoyl)amino butyric acid], the “clinical disability score at day 40” value in test [1] (treatment before onset from day 5/6, stopped day 27, vehicle 2.4) is 1.6. The “clinical score at day 18” value in test [1] (treatment before onset from day 5/6, vehicle grade 2, 5-point scale) is given as 0.5. Besides, the “clinical course of EAE vs vehicle control” value in test [1] (treatment before onset of symptoms, from day 5/6 after immunization, daily for 3 weeks) was “significant during the first paralytic episode; also recorded: significant reduction of disease severity”.
